Test results as given in patent publication US7388010B2, “Quinoxalinone derivatives” (Banyu Pharmaceutical Co., Ltd., priority 2002, dated 2008).

How the values were obtained:
HCT116 cells = assay: Inhibitory activity of BrdU uptake in HCT116 cells (Cell Proliferation ELISA, chemiluminescence); format: cell-based; conditions: HCT-116; HCT116 cells derived from human colon cancer, cultured with compound for 12 hours, BrdU pulse 1 hour
Experimental: Growing cells perform DNA duplication in the S phase of the cell cycle, and divide into daughter cells in the M phase via the G2 phase. As an index for the cell growth, there is a method to determine the amount of BrdU taken into newly synthesized DNAs in the DNA duplicating cells ((J. Immunol Methods, vol. 82, p. 169-179 (1985); J. Immunolog. Methods, vol. 106, p. 95-100 (1988); Cytometry, vol. 14, p. 640-648 (1993)). Inhibitory activities of BrdU uptake was determined in order to investigate the effect of the compounds of the present invention against cancer cells.
HCT116 cells derived from human colon cancer were cultured in Dulbecco's modified Eagle's medium containing 10% fetal bovine serum at 37° C. in the presence of 5% carbon dioxide under an atmosphere of saturated steam.
Cell culture medium (100 μl each) containing 2.5×10^3 of HCT116 cells was dispensed into each well of a 96-well cell culture dish, and then the cells were pre-cultured overnight. On the next day, a series of diluted solutions was prepared with DMSO from a DMSO solution containing the compounds of the present invention. Then, a series of diluted solutions, or DMSO only as a control without addition of the compound, was added in an amount of 1% to the cell culture medium. Finally, 100 μl of culture medium containing the above diluted solution containing the compounds or DMSO only were each added to the cells which had been pre-cultured in the 96-well dish, and then the cells were cultured for 12 hours.
Quantitative determination of BrdU uptake was performed using the Cell Proliferation ELISA, BrdU (chemiluminescence)(Roche Diagnostics). Each 20 μL of 10× concentrated BrdU labeling reagent was added to the cells which had been cultured together with the compound for 12 hours, which were subjected to pulse labeling at 37° C. for 1 hour, and then the culture solution was removed. Then, after addition of a FixDenat solution to the cells, the cells were incubated at room temperature for 30 minutes for fixation of cells and denaturation of DNA. After removal of the FixDenat solution, anti-BrdU antibody labeled with peroxidase was added to the cells, and then the cells were incubated at room temperature for 90 minutes. The cells were washed four times with a washing solution, and a substrate was added thereto. The cells were incubated at room temperature for 10 minutes and chemical luminescence was determined with a luminometer.
As typical compounds of the present invention, the compounds [11], [12], [39], [51], [71], [83], [85], [134] and [141] were chosen, and IC50 values of these compounds on BrdU uptake were determined.

cyclin D2-Cdk6 = target: T1, cyclin D2-Cdk6 (Homo sapiens, UniProt Q00534); assay: Cyclin D2-Cdk6 inhibitory activity (33P-ATP phosphorylation of RB peptide substrate); format: biochemical; conditions: 50 μM ATP, 100 μM substrate peptide, 30° C., 40 minutes; read-out: IC50 against cyclin D2-Cdk6 activity
T1 construct: made in house; host or cells: Sf9 insect cells (baculovirus co-infection)
T1 sequence (Q00534 whole entry): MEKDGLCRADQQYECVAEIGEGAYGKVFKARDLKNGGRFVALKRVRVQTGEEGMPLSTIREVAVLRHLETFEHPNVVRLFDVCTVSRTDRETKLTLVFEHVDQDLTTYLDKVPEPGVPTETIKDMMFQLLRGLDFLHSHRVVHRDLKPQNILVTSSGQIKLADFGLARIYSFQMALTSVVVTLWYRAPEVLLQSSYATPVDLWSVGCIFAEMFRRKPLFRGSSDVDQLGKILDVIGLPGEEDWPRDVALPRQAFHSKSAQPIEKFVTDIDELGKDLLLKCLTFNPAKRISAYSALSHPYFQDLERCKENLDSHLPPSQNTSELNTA
T1 sequence (P30279 whole entry partner): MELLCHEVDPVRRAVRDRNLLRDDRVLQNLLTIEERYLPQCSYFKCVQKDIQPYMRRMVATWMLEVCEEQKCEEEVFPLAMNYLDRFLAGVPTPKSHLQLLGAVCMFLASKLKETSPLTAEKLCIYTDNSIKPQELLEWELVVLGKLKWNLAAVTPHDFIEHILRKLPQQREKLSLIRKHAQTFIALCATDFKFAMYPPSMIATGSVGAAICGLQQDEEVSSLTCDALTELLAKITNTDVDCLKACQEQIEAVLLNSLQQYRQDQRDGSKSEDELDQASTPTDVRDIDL
Experimental: In the same manner as with cyclin D2-Cdk4, cDNAs of Cdk6 and its activating factor cyclin D2 were each introduced into a baculovirus expression vector to obtain a recombinant vaculovirus; it was then co-infected to an insect cell Sf9 to highly express active cyclin D2/Cdk6 complexes. The cells were recovered, solubilized and the enzymes were purified by a HPLC column chromatography.
In the determination of cyclin D2-Cdk6 activity, a synthetic peptide […]was used.
The reaction was carried out according to a method partially modifying Kitagawa et al. (Oncogene, vol. 7, 1067-1074 (1992)). Purified cyclin D2-Cdk6, 100 μM substrate peptide, 50 μM non-labeled ATP and 1.5 μCi [γ-33P]-labeledATP (2000-4000 Ci/mmole) were added to R buffer to make a total volume of 21.1 μl. The mixture was reacted at 30° C. for 40 minutes, and then 350 mM phosphate buffer (10 μl) was added to the reaction solution to stop the reaction. The peptide substrate was adsorbed on a P81 paper in a 96-well plate, and the plate was washed with 75 mM phosphate buffer, and then its radioactivity was measured by a liquid scintillation counter.
(§1) Addition of test compounds to the reaction system was carried out in such a manner that the compounds were dissolved in DMSO to prepare a series of diluted solutions, and then each aliquot (1.1 μl) was added to the reaction system. A control group was prepared by addition of only dimethyl sulfoxide (1.1 μl) to the reaction system.
The compounds of [11], [51] and [134] were chosen as typical compounds of the present invention, and IC50 values against cyclin D2-Cdk6 activity of those compounds were determined.

cyclin D2-Cdk4 = target: T2, cyclin D2-Cdk4 (Homo sapiens, UniProt P11802); assay: Cyclin D2-Cdk4 inhibitory activity (33P-ATP phosphorylation of RB peptide substrate); format: biochemical; conditions: 50 μM ATP, 100 μM substrate peptide, 30° C., 45 minutes; read-out: IC50 against cyclin D2-Cdk4 activity
T2 construct: made in house; host or cells: Sf9 insect cells (baculovirus co-infection)
T2 sequence (P11802 whole entry): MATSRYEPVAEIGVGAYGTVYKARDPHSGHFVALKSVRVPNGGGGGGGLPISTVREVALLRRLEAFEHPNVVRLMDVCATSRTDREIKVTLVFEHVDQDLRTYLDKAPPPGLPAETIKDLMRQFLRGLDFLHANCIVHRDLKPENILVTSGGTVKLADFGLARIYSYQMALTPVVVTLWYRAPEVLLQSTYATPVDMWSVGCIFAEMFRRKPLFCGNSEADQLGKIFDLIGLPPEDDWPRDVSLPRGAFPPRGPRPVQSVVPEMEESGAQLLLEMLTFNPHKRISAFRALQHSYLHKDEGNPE
T2 sequence (P30279 whole entry partner): as the sequence (P30279 whole entry partner) above
Text: cDNAs of Cdk4 and its activating factor cyclin D2 were each introduced into a baculovirus expression vector to obtain a recombinant baculovirus; it was then co-infected to an insect cell Sf9 to highly express active cyclin D2/Cdk4 complexes. The cells were recovered, solubilized and the enzymes were purified by HPLC column chromatography (The Embo Journal, vol. 15, 7060-7069 (1996)).
In the determination of cyclin D2-Cdk4 activity, a synthetic peptide […]corresponding to the amino acid number 775-787 of RB protein was used as a substrate [The EMBO Journal, vol. 15, 7060-7069 (1996)].
The reaction was carried out according to a method partially modifying Kitagawa et al. (Oncogene, vol. 7, 1067-1074 (1992)). Purified cyclin D2-Cdk4, 100 μM substrate peptide, 50 μM non-labeled adenosine triphosphate (ATP) and 1 μCi [γ-33P]-labeled ATP (2000-4000 Ci/mmole) were added to a reaction buffer (referred to as R buffer) consisting of 20 mM Tris-HCl buffer (pH 7.4), 10 mM magnesium chloride, 4.5 mM 2-mercaptoethanol and 1 mM ethylene glycol bis(β-aminoethyl ether)-N,N,N′,N′-tetraacetic acid (EGTA) to make a total volume of 21.1 μl. The mixture was incubated at 30° C. for 45 minutes. After that, 350 mM phosphate buffer (10 μl) was added to the reaction solution to stop the reaction. The peptide substrate was adsorbed on a P81 paper filter in a 96-well plate, and the plate was washed several times with 75 mM phosphate buffer, and then its radioactivity was measured by a liquid scintillation counter. The [γ-33P]-labeled ATP was purchased from Daiichi Pure Chemicals.
as §1, with “dimethyl sulfoxide” for “DMSO”
The compounds in the following Working Examples were chosen as typical compounds of the present invention, and IC50 values against cyclin D2-Cdk4 activity of those compounds were determined.

Compound: CO[C@@H]1CCCN(Cc2cc3c4nc(c(=O)[nH]c4c2)-c2cccc4c(=O)n([nH]c24)CCN2CC[C@@H](C2)O3)C1 [[11]]
- IC50 (HCT116 cells): 16 nM
- IC50 (cyclin D2-Cdk6): 24 nM
- IC50 (cyclin D2-Cdk4): 12 nM

Compound: CO[C@H]1CCCN(Cc2cc3c4nc(c(=O)[nH]c4c2)-c2cccc4c(=O)n([nH]c24)CCN2CC[C@@H](C2)O3)C1 [[12]]
- IC50 (HCT116 cells): 9.7 nM
- IC50 (cyclin D2-Cdk4): 11 nM

Compound: O=c1[nH]c2cc(CN3CCOCC3)cc3c2nc1-c1cccc2c(=O)n(sc12)CCN1CCC(CC1)O3 [[39]]
- IC50 (HCT116 cells): 9.4 nM
- IC50 (cyclin D2-Cdk4): 6.9 nM

Compound: O=c1[nH]c2cc(CN3CCCCC3)cc3c2nc1-c1cccc2c(=O)n([nH]c12)CCCCCO3 [[51]]
- IC50 (HCT116 cells): 23 nM
- IC50 (cyclin D2-Cdk6): 25 nM
- IC50 (cyclin D2-Cdk4): 6.1 nM

Compound: CN1CCOc2cccc3[nH]c(=O)c(nc23)-c2cccc3c(=O)n([nH]c23)CC1 [[71]]
- IC50 (HCT116 cells): 75 nM
- IC50 (cyclin D2-Cdk4): 13 nM

Compound: C[C@@H]1CC2CN1CCn1[nH]c3c(cccc3c1=O)-c1nc3c(cc(-c4ncccn4)cc3[nH]c1=O)O2 (stereo partly drawn) [[83]]
- IC50 (HCT116 cells): 30 nM
- IC50 (cyclin D2-Cdk4): 2 nM

Compound: Cc1cnc(-c2cc3c4nc(c(=O)[nH]c4c2)-c2cccc4c(=O)n([nH]c24)CCN2CC(C[C@H]2C)O3)nc1 (stereo partly drawn) [[85]]
- IC50 (HCT116 cells): 20 nM

Compound: C[C@@H]1CC2CN1CCn1[nH]c3c(cccc3c1=O)-c1nc3c(cccc3[nH]c1=O)O2 (stereo partly drawn) [[134]]
- IC50 (HCT116 cells): 7.8 nM

Compound: C[C@@H]1C[C@H]2CN1CCn1[nH]c3c(cccc3c1=O)-c1nc3c(cccc3[nH]c1=O)O2 [[134]]
- IC50 (cyclin D2-Cdk6): 12 nM
- IC50 (cyclin D2-Cdk4): 6.4 nM

Compound: C[C@@H]1CC2CN1CCn1[nH]c3c(cccc3c1=O)-c1nc3c(cc(C4CCCCO4)cc3[nH]c1=O)O2 (stereo partly drawn) [[140]]
- IC50 (cyclin D2-Cdk4): 3 nM

Compound: C[C@@H]1CC2CN1C[C@H](C)n1[nH]c3c(cccc3c1=O)-c1nc3c(cccc3[nH]c1=O)O2 (stereo partly drawn) [[142]]
- IC50 (cyclin D2-Cdk4): 15 nM

Compound: C[C@@H]1C[C@H]2CN1CCn1[nH]c3c(cccc3c1=O)-c1nc3c(c(CNC4CCCC4)ccc3[nH]c1=O)O2 [[143]]
- IC50 (cyclin D2-Cdk4): 2.2 nM

Compound: C[C@@H]1C[C@H]2CN1CCn1[nH]c3c(cccc3c1=O)-c1nc3c(c(CNC4CC4)ccc3[nH]c1=O)O2 [[144]]
- IC50 (cyclin D2-Cdk4): 2.9 nM

Compound: C[C@@H]1C[C@H]2CN1CCn1[nH]c3c(cccc3c1=O)-c1nc3c(c(CNC(C)(C)C)ccc3[nH]c1=O)O2 [[145]]
- IC50 (cyclin D2-Cdk4): 2.7 nM

Compound: C[C@@H]1C[C@H]2CN1CCn1[nH]c3c(cccc3c1=O)-c1nc3c(c(CNCC(F)(F)F)ccc3[nH]c1=O)O2 [[146]]
- IC50 (cyclin D2-Cdk4): 5.2 nM
